Read-outs that look alike come from different tables or passages of the source. Marks after values point to notes of the source that are not given here.

For orientation: Vmax means the top rate of the reaction or transport when substrate is in excess.

Assay [1] has as its target T1, human recombinant core 2 β1,6-GlcNAc-transferase (C2GnT1) (Homo sapiens, UniProt Q02742).
T1 sequence (Q02742 33-428 limits assumed): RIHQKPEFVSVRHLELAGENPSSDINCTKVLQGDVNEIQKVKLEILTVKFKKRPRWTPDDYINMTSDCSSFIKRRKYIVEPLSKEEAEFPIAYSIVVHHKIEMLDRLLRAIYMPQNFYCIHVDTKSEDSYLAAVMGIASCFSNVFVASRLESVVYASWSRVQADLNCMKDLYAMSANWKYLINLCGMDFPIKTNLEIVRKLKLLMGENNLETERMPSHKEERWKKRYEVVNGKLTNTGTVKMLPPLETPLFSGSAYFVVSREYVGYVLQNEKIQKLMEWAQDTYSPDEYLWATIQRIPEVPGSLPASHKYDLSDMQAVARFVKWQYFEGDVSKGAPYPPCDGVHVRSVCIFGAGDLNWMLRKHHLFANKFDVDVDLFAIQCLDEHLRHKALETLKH
Briefly: C2GnT1 glycosyltransferase assay. It counts as biochemical. Particulars: for C2GnT1 activity (%): acceptor substrate 0.5 mM, 0.5 mM Galβ1–3GalNAcα-pnp set to 100%.

For assay [2], the target named is T2, human recombinant core 2/4 β1,6-GlcNAc-transferase (C2GnT2) (Homo sapiens, UniProt O95395).
T2 sequence (O95395 27-438): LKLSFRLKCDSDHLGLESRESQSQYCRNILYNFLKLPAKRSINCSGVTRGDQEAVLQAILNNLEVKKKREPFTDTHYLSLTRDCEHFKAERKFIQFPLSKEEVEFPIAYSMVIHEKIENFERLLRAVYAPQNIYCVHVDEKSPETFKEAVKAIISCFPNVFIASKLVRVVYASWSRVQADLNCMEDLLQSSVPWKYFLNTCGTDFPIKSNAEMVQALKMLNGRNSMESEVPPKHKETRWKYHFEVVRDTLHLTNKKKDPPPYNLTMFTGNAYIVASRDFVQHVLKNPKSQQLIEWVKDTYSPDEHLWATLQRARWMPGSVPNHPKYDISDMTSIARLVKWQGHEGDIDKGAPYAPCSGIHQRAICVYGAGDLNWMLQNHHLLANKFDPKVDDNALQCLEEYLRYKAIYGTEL
It counts as biochemical. The conditions noted are these: for C2GnT2 activity (%): acceptor substrate 0.5 mM, 0.5 mM Galβ1–3GalNAcα-pnp set to 100%.

Consider `CC(=O)N[C@H]1[C@@H](OCc2ccccc2)O[C@H](CO)[C@H](O)[C@@H]1O[C@@H]1O[C@H](CO)[C@H](O)C[C@H]1O` [3-Deoxy-Galβ1–3GalNAcα-Bn], for which, in assay [1], the “C2GnT1 activity (%)” value came to 90%. In addition, the “C2GnT2 activity (%)” value in assay [2] is given as 52%.

As to `CO[C@H]1[C@@H](O)[C@@H](CO)O[C@@H](O[C@H]2[C@@H](O)[C@@H](CO)O[C@H](OCc3ccccc3)[C@@H]2NC(C)=O)[C@@H]1O` [3-O-Methyl-Galβ1–3GalNAcα-Bn], the “C2GnT1 activity (%)” value in assay [1] was determined as 104%. Moreover, the “C2GnT2 activity (%)” value in assay [2] came out at 41%.

For the compound `CC(=O)N[C@H]1[C@@H](OCc2ccccc2)O[C@H](CO)[C@H](O)[C@@H]1O[C@@H]1O[C@H](CO)C[C@H](O)[C@H]1O` [4-Deoxy-Galβ1–3GalNAcα-Bn], in assay [1], the “C2GnT1 activity (%)” value is less than 1%. For the same compound, the “C2GnT2 activity (%)” value in assay [2] is less than 1%.

Regarding `CC(=O)N[C@H]1[C@@H](OCc2ccccc2)O[C@H](CO)[C@H](O)[C@@H]1O[C@@H]1O[C@H](CO)[C@H](F)[C@H](O)[C@H]1O` [4-F-4-Deoxy-Galβ1–3GalNAcα-Bn], the “C2GnT1 activity (%)” value in assay [1] is reported as less than 1%. Also, in assay [2], the “C2GnT2 activity (%)” value is less than 1%.

On to `CC(=O)N[C@H]1[C@@H](OCc2ccccc2)O[C@H](CO)[C@H](O)[C@@H]1O[C@@H]1O[C@H](C)[C@H](O)[C@H](O)[C@H]1O` [6-Deoxy-Galβ1–3GalNAcαBn], for which the “C2GnT1 activity (%)” value in assay [1] was less than 1%. Moreover, in assay [2], the “C2GnT2 activity (%)” value is reported as less than 1%.

Regarding `CO[C@H]1O[C@H](CO)[C@H](O)[C@H](O[C@@H]2O[C@H](CO)[C@H](O)[C@H](O)[C@H]2O[C@@H]2O[C@@H](C)[C@@H](O)[C@@H](O)[C@@H]2O)[C@H]1NC(C)=O` [Fucα1–2Galβ1–3GalNAcα-methyl], in assay [1], the “C2GnT1 activity (%)” value is given as less than 1%. Also, in assay [2], the “C2GnT2 activity (%)” value is reported as less than 1%.

With `CC(=O)N[C@H]1[C@@H](OCc2ccccc2)O[C@H](CO)C[C@@H]1O[C@@H]1O[C@H](CO)[C@H](O)[C@H](O)[C@H]1O` [Galβ1–3(4-deoxy)GalNAcα-Bn], the “C2GnT1 activity (%)” value in assay [1] is less than 1%. Further, the “C2GnT2 activity (%)” value in assay [2] is given as less than 1%.

Turning to `COC[C@H]1O[C@H](OCc2ccccc2)[C@H](NC(C)=O)[C@@H](O[C@@H]2O[C@H](CO)[C@H](O)[C@H](O)[C@H]2O)[C@H]1O` [Galβ1–3(6-O-methyl)GalNAcα-Bn], the “C2GnT1 activity (%)” value in assay [1] was less than 1%. For the same compound, the “C2GnT2 activity (%)” value in assay [2] is reported as less than 1%.

For the compound `CC(=O)N[C@H]1[C@@H](OCc2ccccc2)O[C@H](CO)[C@H](O)[C@@H]1O[C@@H]1O[C@H](CO)[C@H](O)[C@H](O)[C@H]1O` [Galβ1–3GalNAcα-Bn], the “C2GnT1 activity (%)” value in assay [1] came to 64%. Further, the “C2GnT2 activity (%)” value in assay [2] came to 35%.

For the compound `CC(=O)N[C@H]1[C@@H](Oc2ccccc2[N+](=O)[O-])O[C@H](CO)[C@H](O)[C@@H]1O[C@@H]1O[C@H](CO)[C@H](O)[C@H](O)[C@H]1O` [Galβ1–3GalNAcα-onp], the “C2GnT1 activity (%)” value in assay [1] amounted to 79%. In assay [2], the “C2GnT2 activity (%)” value is 100%.

In the case of `C=C(C)C1CC=C(CO[C@H]2O[C@H](CO)[C@H](O)[C@H](O[C@@H]3O[C@H](CO)[C@H](O)[C@H](O)[C@H]3O)[C@H]2NC(C)=O)CC1` (stereo partly drawn) [Galβ1–3GalNAcα-perillyl], the “C2GnT1 activity (%)” value in assay [1] is listed as 135%. Further, the “C2GnT2 activity (%)” value in assay [2] turned out to be 86%.

For the compound `CC(=O)N[C@H]1[C@@H](Oc2ccc([N+](=O)[O-])cc2)O[C@H](CO)[C@H](O)[C@@H]1O[C@@H]1O[C@H](CO)[C@H](O)[C@H](O)[C@H]1O` [Galβ1–3GalNAcα-pnp, reference compound], the “C2GnT1 activity (%)” value in assay [1] is listed as 100 ^a %. For the same compound, the Vmax in assay [2] (C2GnT2, acceptor substrate) was 1.5 µmol/h/mg. In assay [2], the “C2GnT2 activity (%)” value is listed as 100 ^b %.

As for `CC(=O)N[C@H]1[C@@H](OCc2ccccc2)O[C@H](CO)[C@@H](O)[C@@H]1O[C@@H]1O[C@H](CO)[C@H](O)[C@H](O)[C@H]1O` [Galβ1–3GlcNAcα-Bn], the “C2GnT1 activity (%)” value in assay [1] was less than 1%.

Regarding `CC(=O)N[C@H]1[C@@H](OCc2ccccc2)O[C@H](CO)[C@H](O)[C@@H]1O[C@@H]1O[C@H](CO)[C@H](O)[C@H](O[C@@H]2O[C@H](CO)[C@@H](O)[C@H](O[C@@H]3O[C@H](CO)[C@H](O)[C@H](O)[C@H]3O)[C@H]2NC(C)=O)[C@H]1O` [Galβ1–3GlcNAcβ1–3Galβ1–3GalNAcα-Bn], the “C2GnT1 activity (%)” value in assay [1] is less than 1%. For the same compound, in assay [2], the “C2GnT2 activity (%)” value is recorded as less than 1%.

For the compound `CO[C@@H]1O[C@H](CO)[C@H](O)[C@H](O[C@@H]2O[C@H](CO)[C@@H](O)[C@H](O)[C@H]2NC(C)=O)[C@H]1O` [GlcNAcβ1–3-Galβ-methyl], the “C2GnT1 activity (%)” value in assay [1] is less than 1%. Also, the “C2GnT2 activity (%)” value in assay [2] was less than 1%.

For the compound `C=CCO[C@H]1O[C@H](CO)[C@H](O)[C@H](O[C@@H]2O[C@H](CO)[C@@H](O)[C@H](O)[C@H]2NC(C)=O)[C@H]1NC(C)=O` [GlcNAcβ1–3GalNAcα-allyl], the “C2GnT1 activity (%)” value in assay [1] is less than 1%. Moreover, the “C2GnT2 activity (%)” value in assay [2] is given as 27%.

`CC(=O)N[C@H]1[C@H](O[C@H]2[C@@H](O)[C@@H](CO)O[C@H](Oc3ccc([N+](=O)[O-])cc3)[C@@H]2NC(C)=O)O[C@H](CO)[C@@H](O)[C@@H]1O` [GlcNAcβ1–3GalNAcα-pnp, reference compound]: in assay [1], the “C2GnT1 activity (%)” value is listed as less than 1%. In assay [2] (C2GnT2, acceptor substrate), the Vmax was 1.0 µmol/h/mg. The “C2GnT2 activity (%)” value in assay [2] came to 32%.

For `CC(=O)N[C@H]1[C@H](OC[C@H]2O[C@H](OCc3ccccc3)[C@H](NC(C)=O)[C@@H](O[C@@H]3O[C@H](CO)[C@@H](O)[C@H](O)[C@H]3NC(C)=O)[C@H]2O)O[C@H](CO)[C@@H](O)[C@@H]1O` [GlcNAcβ1–6(GlcNAcβ1–3)GalNAcα-Bn], in assay [1], the “C2GnT1 activity (%)” value is less than 1%. Besides, the “C2GnT2 activity (%)” value in assay [2] is reported as less than 1%.

As for `CC(=O)N[C@H]1[C@@H](OP(=O)(O)OP(=O)(O)OC[C@H]2O[C@@H](n3ccc(=O)[nH]c3=O)[C@H](O)[C@@H]2O)O[C@H](CO)[C@@H](O)[C@@H]1O` [UDP-GlcNAc, reference compound], the Vmax in assay [1] (C2GnT1, donor substrate, using 5 mM Galβ1–3GalNAcα-pnp) amounted to 0.1 µmol/h/mg; in assay [2] (C2GnT2, donor substrate, using 5 mM Galβ1–3GalNAcα-pnp), 1.7 µmol/h/mg; in assay [2] (C2GnT2, donor substrate, using 5 mM GlcNAcβ1–3GalNAcα-pnp) it was 0.8 µmol/h/mg.

On to (Galβ1–3GalNAcα)TAGV, for which, in assay [1], the “C2GnT1 activity (%)” value is listed as 92%. Moreover, the “C2GnT2 activity (%)” value in assay [2] was less than 1%.

As to “AHGVT-(Galβ1–3GalNAcα)SAPDTRPAPGS- (Galβ1–3GalNAcα)SAPPA”, the “C2GnT1 activity (%)” value in assay [1] was 9%. For the same compound, the “C2GnT2 activity (%)” value in assay [2] was less than 1%.

With “AHGVT-(Galβ1–3GalNAcα)SAPDTRPAPGSTAP- (Galβ1–3GalNAcα)TA”, the “C2GnT1 activity (%)” value in assay [1] is 18%. Besides, in assay [2], the “C2GnT2 activity (%)” value is on record as less than 1%.

As to AHGVT-(Galβ1–3GalNAcα)SAPDTRPAPGSTAPNA, in assay [1], the “C2GnT1 activity (%)” value worked out at 9%. Moreover, the “C2GnT2 activity (%)” value in assay [2] is less than 1%.

Consider AHGVT-(Galβ1–3GalNAcα)SAPDTRPAPGSTAPTA, for which the “C2GnT1 activity (%)” value in assay [1] was 9%. Besides, the “C2GnT2 activity (%)” value in assay [2] was less than 1%.

Consider AHGVT-(Galβ1–3GalNAcα)SAPESRPAPGSTAPNA, for which, in assay [1], the “C2GnT1 activity (%)” value was 9%. In addition, in assay [2], the “C2GnT2 activity (%)” value is given as less than 1%.

In the case of AHGVT-(Galβ1–3GalNAcα)SAPETRPAPGSTAPTA, the “C2GnT1 activity (%)” value in assay [1] is on record as 11%. Also, in assay [2], the “C2GnT2 activity (%)” value is less than 1%.

For the compound Ac-G-(Galβ1–3GalNAcα)TTTPIST-NH2, in assay [1], the “C2GnT1 activity (%)” value is given as 12%. Further, the “C2GnT2 activity (%)” value in assay [2] is given as 8%.

As to Ac-GT-(Galβ1–3GalNAcα)TTPIST-NH2, in assay [1], the “C2GnT1 activity (%)” value was determined as 13%. In addition, the “C2GnT2 activity (%)” value in assay [2] was 5%.

Ac-GTT-(Galβ1–3GalNAcα)TPIST-NH2: the “C2GnT1 activity (%)” value in assay [1] turned out to be 14%. Also, in assay [2], the “C2GnT2 activity (%)” value is on record as less than 1%.

Values taken from article PMC4002258 (Biochimica et biophysica acta, 2013).
